Experimental data: ChEMBL document CHEMBL1201862, “PubChem BioAssay data set” (2004)
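Five compound concentrations were applied to cells in 96-well plates for 48 hours; endpoints were derived by simple linear interpolation of the resulting dose-response curve. Here, GI50 denotes the concentration required for 50% inhibition of growth.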 The source made the active and inactive calls. No stated cut-off is given here; in the data, active = GI50 up to about 1.1 µM and inactive = higher.

How the values were obtained:
Experiment in all cases: NCI tumour cell line growth inhibition, 48 h
786-0 = tested on: 786-0
CAKI-1 = tested on: CAKI-1
HCT-15 = tested on: HCT-15
HL-60 = tested on: HL-60
HOP-92 = tested on: HOP-92
IGROV-1 = tested on: IGROV-1
K562 = tested on: K562
KM12 = tested on: KM12
LOX IMVI = tested on: LOX IMVI
NCI-H226 = tested on: NCI-H226
OVCAR-3 = tested on: OVCAR-3
OVCAR-4 = tested on: OVCAR-4
OVCAR-8 = tested on: OVCAR-8
SK-MEL-2 = tested on: SK-MEL-2
U-251 = tested on: U-251
SF-539 = tested on: SF-539

SMILES | GI50 (786-0) | GI50 (CAKI-1) | GI50 (HCT-15) [µM] | GI50 (HL-60) | GI50 (HOP-92) | GI50 (IGROV-1) | GI50 (K562) | GI50 (KM12) | GI50 (LOX IMVI) | GI50 (NCI-H226) | GI50 (OVCAR-3) | GI50 (OVCAR-4) | GI50 (OVCAR-8) | GI50 (SK-MEL-2) | GI50 (U-251) | GI50 (SF-539)
COC(=O)c1onc(-c2c(OC)cc(OC)cc2OC)c1C(=O)OC | > 100 µM (inactive) | > 100 µM (inactive) | > 100 | > 100 µM (inactive) | > 100 µM (inactive) | > 100 µM (inactive) | > 100 µM (inactive) | > 100 µM (inactive) | > 100 µM (inactive) | > 100 µM (inactive) | > 100 µM (inactive) | > 100 µM (inactive) | > 100 µM (inactive) | > 100 µM (inactive) | > 100 µM (inactive) | –
COc1cc2oc(-c3ccc(O)cc3)cc(=O)c2c(O)c1C1OC(CO)C(O)C(O)C1O (stereo not given) | > 100 µM (inactive) | > 100 µM (inactive) | > 100 | > 100 µM (inactive) | – | > 100 µM (inactive) | > 100 µM (inactive) | > 100 µM (inactive) | > 100 µM (inactive) | > 100 µM (inactive) | > 100 µM (inactive) | > 100 µM (inactive) | > 100 µM (inactive) | > 100 µM (inactive) | > 100 µM (inactive) | > 100 µM (inactive)
COc1ccc(C(=O)N2c3ccccc3N(C)n3cccc3C2CC(=O)O)cc1 (stereo not given) | > 100 µM (inactive) | > 100 µM (inactive) | > 100 | > 100 µM (inactive) | > 100 µM (inactive) | > 100 µM (inactive) | > 100 µM (inactive) | > 100 µM (inactive) | > 100 µM (inactive) | > 100 µM (inactive) | > 100 µM (inactive) | > 100 µM (inactive) | > 100 µM (inactive) | > 100 µM (inactive) | – | > 100 µM (inactive)
Nc1c(-c2nc3ccccc3s2)[n+]([O-])c2ccccc2[n+]1[O-] | 32.1 µM (inactive) | 25.8 µM (inactive) | – | 29.9 µM (inactive) | 23.1 µM (inactive) | 29.9 µM (inactive) | 45.8 µM (inactive) | 33.2 µM (inactive) | – | 54.7 µM (inactive) | 23.3 µM (inactive) | 42.1 µM (inactive) | 38.6 µM (inactive) | 29.1 µM (inactive) | 38.9 µM (inactive) | 29.9 µM (inactive)
CCOC(=N)CC(=O)Nc1ccc(Cl)cc1 | > 100 µM (inactive) | > 100 µM (inactive) | > 100 | > 100 µM (inactive) | – | > 100 µM (inactive) | > 100 µM (inactive) | > 100 µM (inactive) | > 100 µM (inactive) | > 100 µM (inactive) | > 100 µM (inactive) | > 100 µM (inactive) | > 100 µM (inactive) | > 100 µM (inactive) | > 100 µM (inactive) | > 100 µM (inactive)
O=C1C2c3[nH]c4ccccc4c3[C@@H]3CCCCCCCCCCC3C2C(=O)N1c1ccccc1 (stereo not given in full) | 16.1 µM (inactive) | – | 38.6 | 12.1 µM (inactive) | – | 18.7 µM (inactive) | 8.67 µM (inactive) | 18.2 µM (inactive) | 16.1 µM (inactive) | 33.5 µM (inactive) | 16 µM (inactive) | 17.6 µM (inactive) | 18.1 µM (inactive) | – | 18.2 µM (inactive) | 10.1 µM (inactive)
COc1cc(C2C(Cl)C(=O)N2NC(=O)Cc2ccccc2)cc(Br)c1O (stereo not given) | > 100 µM (inactive) | > 100 µM (inactive) | 51.8 | 48 µM (inactive) | – | > 100 µM (inactive) | > 100 µM (inactive) | > 100 µM (inactive) | 74.3 µM (inactive) | > 100 µM (inactive) | 61 µM (inactive) | 63.5 µM (inactive) | > 100 µM (inactive) | > 100 µM (inactive) | > 100 µM (inactive) | –
CC(C)c1ccc(/C=C(\NC(=O)c2ccccc2)c2nc3ccccc3[nH]2)cc1 | 39.3 µM (inactive) | 50.6 µM (inactive) | 43.1 | – | 36.7 µM (inactive) | 73.8 µM (inactive) | 27.5 µM (inactive) | 32.2 µM (inactive) | 27.2 µM (inactive) | 55.8 µM (inactive) | 37.3 µM (inactive) | 30.2 µM (inactive) | 32.4 µM (inactive) | 34.4 µM (inactive) | 39.4 µM (inactive) | 77.1 µM (inactive)
CCc1ccc(/N=C\c2cc(OC)c(OC)c(OC)c2)cc1 | > 100 µM (inactive) | > 100 µM (inactive) | > 100 | – | > 100 µM (inactive) | > 100 µM (inactive) | 26.5 µM (inactive) | > 100 µM (inactive) | 20.9 µM (inactive) | – | > 100 µM (inactive) | > 100 µM (inactive) | > 100 µM (inactive) | > 100 µM (inactive) | > 100 µM (inactive) | > 100 µM (inactive)
COc1ccc(-c2nnc(-c3c(C)n(C)n(-c4ccccc4)c3=O)o2)cc1 | > 100 µM (inactive) | – | > 100 | > 100 µM (inactive) | > 100 µM (inactive) | > 100 µM (inactive) | > 100 µM (inactive) | > 100 µM (inactive) | > 100 µM (inactive) | > 100 µM (inactive) | > 100 µM (inactive) | > 100 µM (inactive) | > 100 µM (inactive) | > 100 µM (inactive) | > 100 µM (inactive) | > 100 µM (inactive)
CCC1CCc2c(OC)ccc(OCC(=O)O)c2C1=O (stereo not given) | > 100 µM (inactive) | – | > 100 | > 100 µM (inactive) | – | > 100 µM (inactive) | > 100 µM (inactive) | > 100 µM (inactive) | > 100 µM (inactive) | > 100 µM (inactive) | > 100 µM (inactive) | > 100 µM (inactive) | > 100 µM (inactive) | > 100 µM (inactive) | > 100 µM (inactive) | > 100 µM (inactive)
Cc1cc2c(C)nn(Cc3ccccc3)c2c(C(=O)O)c1C | > 100 µM (inactive) | – | > 100 | > 100 µM (inactive) | > 100 µM (inactive) | > 100 µM (inactive) | – | – | > 100 µM (inactive) | > 100 µM (inactive) | > 100 µM (inactive) | – | > 100 µM (inactive) | > 100 µM (inactive) | > 100 µM (inactive) | > 100 µM (inactive)
Cc1cc2cc(Cl)ccc2nc1C(=O)c1ccccc1 | > 100 µM (inactive) | > 100 µM (inactive) | > 100 | – | – | > 100 µM (inactive) | > 100 µM (inactive) | > 100 µM (inactive) | > 100 µM (inactive) | > 100 µM (inactive) | > 100 µM (inactive) | > 100 µM (inactive) | > 100 µM (inactive) | > 100 µM (inactive) | > 100 µM (inactive) | > 100 µM (inactive)
CCOC(=O)Nn1c(C)cc(C(=O)OC)c1C | > 100 µM (inactive) | > 100 µM (inactive) | > 100 | > 100 µM (inactive) | – | > 100 µM (inactive) | > 100 µM (inactive) | > 100 µM (inactive) | > 100 µM (inactive) | > 100 µM (inactive) | > 100 µM (inactive) | – | > 100 µM (inactive) | > 100 µM (inactive) | > 100 µM (inactive) | > 100 µM (inactive)
CC1=C(C(=O)Nc2cccc(Cl)c2)C(c2ccc([N+](=O)[O-])cc2)C(C(=O)Nc2cccc(Cl)c2)=C(C)N1 | 22 µM (inactive) | – | 23.7 | 17.9 µM (inactive) | 11.5 µM (inactive) | 26.5 µM (inactive) | 24.8 µM (inactive) | 21.4 µM (inactive) | 14.9 µM (inactive) | 26.9 µM (inactive) | 25.6 µM (inactive) | 20.7 µM (inactive) | 30.7 µM (inactive) | 18.3 µM (inactive) | 15.8 µM (inactive) | 39.8 µM (inactive)
C[N+]1(C)C/C(=C\c2ccncc2)C(=O)/C(=C/c2ccncc2)C1 | > 100 µM (inactive) | > 100 µM (inactive) | > 100 | 24.8 µM (inactive) | > 100 µM (inactive) | > 100 µM (inactive) | – | > 100 µM (inactive) | > 100 µM (inactive) | – | > 100 µM (inactive) | > 100 µM (inactive) | > 100 µM (inactive) | – | 85.5 µM (inactive) | > 100 µM (inactive)
O=C(Nc1ccc(Cl)cc1C(=O)O)c1ccc([N+](=O)[O-])cc1 | 13.4 µM (inactive) | – | 16.7 | 22.4 µM (inactive) | 8.18 µM (inactive) | 17.4 µM (inactive) | 20.8 µM (inactive) | 18.4 µM (inactive) | 19.9 µM (inactive) | 11.2 µM (inactive) | 22.4 µM (inactive) | 18.6 µM (inactive) | 26.7 µM (inactive) | 3.72 µM (inactive) | 18.8 µM (inactive) | 14.5 µM (inactive)
COc1ccc(/C=C/C(=O)c2c(-c3ccccc3)nn(C)c(=O)c2N2CCCCC2)cc1 | 14.2 µM (inactive) | 31.2 µM (inactive) | 20.7 | – | 3.81 µM (inactive) | 25 µM (inactive) | 11.8 µM (inactive) | – | 14.7 µM (inactive) | – | – | – | 19.5 µM (inactive) | – | 14.5 µM (inactive) | 17.5 µM (inactive)
Cc1ccc(NC(=O)C(=O)C2C(=O)NC(=O)NC2=O)cc1C | > 100 µM (inactive) | > 100 µM (inactive) | > 100 | > 100 µM (inactive) | > 100 µM (inactive) | > 100 µM (inactive) | > 100 µM (inactive) | > 100 µM (inactive) | > 100 µM (inactive) | > 100 µM (inactive) | > 100 µM (inactive) | > 100 µM (inactive) | > 100 µM (inactive) | > 100 µM (inactive) | > 100 µM (inactive) | > 100 µM (inactive)
CC(=O)OC1[C@H]2c3cc4c(cc3CN3CCC(=C[C@@H]1O)C23)OCO4 (stereo not given in full) | > 100 µM (inactive) | – | > 100 | > 100 µM (inactive) | – | > 100 µM (inactive) | > 100 µM (inactive) | 44.4 µM (inactive) | > 100 µM (inactive) | 34.7 µM (inactive) | > 100 µM (inactive) | – | > 100 µM (inactive) | – | > 100 µM (inactive) | > 100 µM (inactive)
